Experimental findings from patent publication US20250230151A1, “COMPOUNDS FOR CANCERS DRIVEN BY BRAF MUTATION” (THE BOARD OF TRUSTEES OF THE UNIVERSITY OF ILLINOIS, priority 2021, published 2025) are described below.

One data set relates to A375 cells. Nature of the data set: 72-hour cell viability assay (Alamar Blue), A375. It is filed as cell-based, human. The note with it: Homo sapiens, A-375; 72-hour incubation, Alamar Blue, V600E BRAF. As to the method:
(§1) Cell Culture and reagents. All cell lines were grown in a 37° C., 5% CO2, humidified environment, in media containing 1% penicillin/streptomycin. Cell culture conditions are as follows: MDCK cells transfected with MDR1 (or ABCB1) were obtained from the Netherlands Cancer Institute (Amsterdam, The Netherlands) and maintained in DMEM with 10% fetal bovine serum (FBS, Gemini). Traditional cell lines A375, CHL-1, B16F10, and U118MG were grown in DMEM with 10% FBS, SK-MEL-28, U87 and T98G in EMEM with 10% FBS, AM-38 in EMEM with 20% HI-FBS (Gibco), HT29 in McCoy's 5A with 10% FBS, HCT116 in RPMI with 10% FBS. Compounds were dissolved in DMSO (1% final concentration, Sigma-Aldrich) for cell culture studies.
(§2) Cell viability assays. Cells were harvested, seeded in a 96-well plate and allowed to adhere overnight. Compound was added to each well in DMSO (1% final concentration). Cells were incubated for 72 hours before viability was assessed by the Alamar Blue Assay. Raptinal ([…]) was used as a dead control.

A further data set relates to HT29 cells. The experiment in a line: 72-hour cell viability assay (Alamar Blue), HT29. Type of data set: cell-based. The note with it: Homo sapiens, HT-29, V600E BRAF, colon. As for the experimental part: as §1, §2
(In general: The colour change of resazurin is a common sign of viable cells or microbes.)

In a further data set the test system is AM-38 cells. Nature of the data set: 72-hour cell viability assay (Alamar Blue), AM-38. Type of data set: cell-based. The note with it: Homo sapiens, AM-38, V600E BRAF, glioma. As to the method:
as §1, §2

In a further data set the test system is HCT116 cells. The experiment in a line: 72-hour cell viability assay (Alamar Blue), HCT116. It is filed as cell-based. The note with it: Homo sapiens, HCT-116, WT BRAF. As to the method:
as §1, §2

The subject of a further data set is CHL-1 cells. Nature of the data set: 72-hour cell viability assay (Alamar Blue), CHL-1. Type of data set: cell-based. The following applies: Homo sapiens, CHL-1, WT BRAF. As for the experimental part: as §1, §2
Another data set has as its system B16F10 cells. Nature of the data set: 72-hour cell viability assay (Alamar Blue), B16F10. Type of data set: cell-based. The note with it: Mus musculus, B16-F10, WT BRAF, read-out: B16F10 IC50. As to the method: as §1, §2
Another data set deals with T98G cells. The experiment in a line: 72-hour cell viability assay (Alamar Blue), T98G. The note with it: Homo sapiens, T98G, WT BRAF, read-out: T98G IC50. It is filed as cell-based. As for the experimental part: as §1, §2
Another data set has as its system U118MG cells. Nature of the data set: 72-hour cell viability assay (Alamar Blue), U118MG. Type of data set: cell-based. The note with it: Homo sapiens, U-118-MG, WT BRAF. As to the method:
as §1, §2

In another data set the test system is U87 cells. Nature of the data set: 72-hour cell viability assay (Alamar Blue), U87. Type of data set: cell-based. The note with it: Homo sapiens, WT BRAF. As for the experimental part: as §1, §2
The next data set addresses T1, P-gp (Homo sapiens, UniProt P08183).
T1 construct: host or cells: MDCK (MDR1-MDCK)
The experiment in a line: MDR1-MDCK P-gp transwell bidirectional transport assay. It is filed as in vitro ADME. The note with it: dog, MDCK-MDR1, MDR1-MDCK, 10 μM, 90 min. As for the experimental part: A novel compound collection composed of complex and diverse compounds derived from natural products, termed “Complexity-to-Diversity Collection” was employed. […] The CtD compounds were evaluated by the efflux pump and their permeability using the P-gp transwell assay using adapted and optimized known protocols. Compound transport across epithelial cells overexpressing P-gp from basolateral-to-apical and apical-to-basolateral directions were quantified to calculate permeability and efflux ratio.
P-gp transwell bidirectional transport assays. Unless noted otherwise, the transport assay was performed in triplicate in batches of 16 or 24 test compounds, with each batch containing quinidine as a substrate control and propranolol as a non-substrate control. MDR1-MDCK cells were plated at a density of 300,000 cells/cm^2 onto 96-well Falcon™ Multiwell Insert System with 1 µm pore polycarbonate filters with angled-bottom receiver plates (Coming) and were fed with the cell growth medium on day 2.
The donor solution was prepared by adding 1 mM DMSO stocks of compounds to make the final concentration […], and the receiver solution was prepared with equivalent volume of DMSO to make 1% DMSO in final assay chamber volumes.
After 80-96 hours since seeding, the growth media on both sides was aspirated. To the transwell plate (apical side), 50 μL of receiver and donor solutions prepared on a 96-well plate were added, and it was placed on top of a separate angled-bottom 96-well plate (basolateral side) containing 260 μL of receiver and donor solutions.
Following 90 minutes of incubation at 37° C. with shaking at 90 rpm, 20 μL aliquot of samples were taken from both the donor and receiver chambers, and the apical and basolateral sides. Aliquots of 4 test compounds were pooled for each category: apical-donor, apical-receiver, basolateral-donor, basolateral-receiver. To measure CO and mass balance, initial donor samples from both apical and basolateral side were set aside from the assay plate. Acetonitrile twice the volume of pooled samples was added and mixed thoroughly, and precipitated proteins were removed by centrifugation at 20,000 r.c.f for 10 minutes.
To ascertain the MDCK monolayer integrity, the solution on apical side contained 100 µM Lucifer Yellow (Millipore-Sigma). After 90 minutes of compound transport, Lucifer Yellow concentration in the basal well was measured using SpectraMax M3 (Molecular Devices) set to an excitation wavelength of 430 nm and an emission wavelength of 540 nm.
Samples were analyzed with the 5500 QTRAP LC/MS/MS system (AB Sciex) with a 1200 series HPLC system (Agilent Technologies) including a degasser, an autosampler, and a binary pump. The liquid chromatography separation was performed on an Agilent SB-Aq column (4.6×50 mm, 5 μm) (Agilent Technologies) with mobile phase A (0.1% formic acid in water) and mobile phase B (0.1% formic acid in acetonitrile). The flow rate was 0.3 ml min^−1. The linear gradient was optimized for each compound. The autosampler was set at 5° C. The injection volume was 15 μL. Mass spectra were acquired with both positive electrospray ionization at the ion spray voltage of 5,500 V and negative electrospray ionization at the ion spray voltage of −4,500 V. The source temperature was 450° C. The curtain gas, ion source gas 1, and ion source gas 2 were 33, 50 and 65, respectively. Multiple reaction monitoring was used to quantify metabolites.
Efflux data calculations.

What is called IC50 is the concentration that gives 50% inhibition. Broadly, the Papp A→B is the apparent permeability from the apical to the basolateral side of a cell layer. A word on the Papp B→A: it is the apparent permeability from the basolateral to the apical side of a cell layer.

The structures appear in SMILES notation. Where two headings read alike, the source gives them in different places.

T1 sequence (P08183 whole entry): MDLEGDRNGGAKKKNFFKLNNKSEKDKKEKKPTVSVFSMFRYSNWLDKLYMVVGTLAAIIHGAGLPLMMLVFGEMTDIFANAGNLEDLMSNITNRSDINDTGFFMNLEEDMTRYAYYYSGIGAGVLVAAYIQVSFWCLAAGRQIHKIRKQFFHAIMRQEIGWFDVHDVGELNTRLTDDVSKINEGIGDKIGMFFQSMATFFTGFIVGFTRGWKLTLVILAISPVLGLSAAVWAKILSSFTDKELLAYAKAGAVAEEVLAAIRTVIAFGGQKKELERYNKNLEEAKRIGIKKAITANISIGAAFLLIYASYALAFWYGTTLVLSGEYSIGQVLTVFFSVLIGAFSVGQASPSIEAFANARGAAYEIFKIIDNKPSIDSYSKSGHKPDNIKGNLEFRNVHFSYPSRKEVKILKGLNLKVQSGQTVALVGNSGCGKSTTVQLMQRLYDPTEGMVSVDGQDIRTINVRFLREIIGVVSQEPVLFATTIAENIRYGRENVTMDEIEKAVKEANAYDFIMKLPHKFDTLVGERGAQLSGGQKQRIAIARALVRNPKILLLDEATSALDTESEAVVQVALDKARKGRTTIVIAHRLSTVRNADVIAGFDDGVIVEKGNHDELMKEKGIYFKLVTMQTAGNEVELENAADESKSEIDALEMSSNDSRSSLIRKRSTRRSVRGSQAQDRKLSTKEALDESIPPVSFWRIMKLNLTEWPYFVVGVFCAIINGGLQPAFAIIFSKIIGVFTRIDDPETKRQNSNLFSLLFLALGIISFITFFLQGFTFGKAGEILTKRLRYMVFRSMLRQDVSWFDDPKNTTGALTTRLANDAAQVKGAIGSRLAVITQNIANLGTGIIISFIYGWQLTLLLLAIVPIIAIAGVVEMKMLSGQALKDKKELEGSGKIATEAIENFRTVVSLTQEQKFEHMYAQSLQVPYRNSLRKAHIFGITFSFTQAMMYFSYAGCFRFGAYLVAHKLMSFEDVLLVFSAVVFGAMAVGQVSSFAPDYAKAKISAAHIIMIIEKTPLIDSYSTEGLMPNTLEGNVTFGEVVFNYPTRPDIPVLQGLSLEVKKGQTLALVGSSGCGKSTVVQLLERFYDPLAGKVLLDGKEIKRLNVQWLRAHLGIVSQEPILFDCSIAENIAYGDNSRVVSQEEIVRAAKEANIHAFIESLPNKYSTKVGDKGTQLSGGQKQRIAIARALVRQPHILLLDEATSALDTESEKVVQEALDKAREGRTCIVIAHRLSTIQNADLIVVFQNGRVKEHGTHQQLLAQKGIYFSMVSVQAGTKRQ

Turning to `CCCS(=O)(=O)Nc1ccc(F)c(C(=O)c2c[nH]c3ncc(-c4ccc(Cl)cc4)cc23)c1F` [Vemurafenib, reference compound], the half-maximal inhibitory concentration (IC50) is 0.331 ± 0.093 µM with A375 cells; 0.24 ± 0.0617 µM in the data set on HT29 cells; 0.344 ± 0.0593 µM in the data set on AM-38 cells; 27 µM in the data set on HCT116 cells (colon, read-out: HCT116 (WT) IC50); over 10 µM in the data set on HCT116 cells (read-out: HCT116 IC50); over 10 µM with CHL-1 cells (melanoma, read-out: CHL-1 (WT) IC50). Further, the half-maximal inhibitory concentration (IC50) with CHL-1 cells (read-out: CHL-1 IC50) is over 10 µM; with B16F10 cells, over 10 µM; with T98G cells, over 10 µM; in the data set with U118MG cells (glioma, read-out: U118MG (WT) IC50), over 10 µM; in the data set with U118MG cells (read-out: U118MG IC50) it was over 10 µM; in the data set on U87 cells (U-87 MG, read-out: U87 IC50), over 10 µM. Also, in the data set with U87 cells (glioma, read-out: U87 (WT) IC50), the IC50 was over 10 µM. At P-gp, this compound registered a Papp A→B at 90 min, 10 µM of 0.667 ± 0.11 ×10⁻⁶ cm/s. For the same compound, the Papp B→A at 90 min, 10 µM at P-gp came out at 3.81 ± 0.063 ×10⁻⁶ cm/s. The efflux ratio at 90 min, 10 µM on P-gp (read-out: ER (efflux ratio) (converted)) was 5.92 ± 0.77.
